Assay results published in patent US9159937B2, “Heteroleptic light-emitting complexes” (SOLVAY SA, priority 2011, dated 2015).
Where two headings read alike, the source gives them in different places.

Key:
[1] = Solubility evaluation in toluene; format: physicochemical
Experimental: Solubility evaluation were performed at 25° C. using toluene as solvent.

[2] = Glass transition temperature by DSC; format: physicochemical
Experimental: The glass transition temperatures Tg were measured using a TA instruments 2920 DSC equipment and data evaluation were done with the TA Instruments Universal Analysis 2000 software.

Row | Compound | Toluene solubility S at 25° C. [1] | Toluene solubility S at 25° C. ([1]; listed as Ir(2-PhQ)3) | Tg [2]
1 | [Ir+3].[c-]1ccccc1-c1ccc2ccccc2n1.[c-]1ccccc1-c1ccc2ccccc2n1.[c-]1ccccc1-c1ccc2ccccc2n1 [[Ir(2-PhQ)3], reference compound] | S < 0.02 wt % | < 0.02 wt % | –
2 | [Ir(n-hexPhQ)3] [reference compound] | – | – | 54 °C
3 | [Ir(2-PhQ)2(DMC2)] | S > 0.25 wt % | – | –
